From article PMC9019904, “AD Informer Set: Chemical tools to facilitate Alzheimer's disease drug discovery” (Alzheimer's & Dementia : Translational Research & Clinical …, 2022)

How the values were obtained:
[1] = tested on: HMC3 (human microglia) cell line; assay: pHrodo-myelin phagocytosis/cell viability high content imaging assay: phagocytosis signal; type: cell-based
How it was run: (§1)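 Phagocytosis and cell viability were measured together by high content imaging about 22 hours after pHrodo-myelin addition. Three measurements were extracted from the images. Intensity increase and decrease were taken as early and later apoptosis, respectively.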

[2] = tested on: BV2 (mouse microglia) cell line; assay: as above; type: cell-based
How it was run: as §1

[3] = tested on: HMC3 (human microglia) cell line; assay: pHrodo-myelin phagocytosis/cell viability high content imaging assay: viability (cell count, nuclear area, nuclear intensity); settings: 48 hours treatment
How it was run: (§2)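 10 μM single dose, 48 h total; pHrodo-myelin present final 20 h. Read-out: automated imaging, total cell count/well, mean nuclear intensity/cell. n=2, normalized to untreated wells, % control.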

[4] = tested on: BV2 (mouse microglia) cell line; assay: as above; settings: 48 hours treatment
How it was run: as §2

[5] = HMC3, compound 10 uM, pHrodo-myelin
[6] = BV2, compound 10 uM, pHrodo-myelin
[7] = HMC3 cells, 10 uM compound, 48 hours treatment, pHrodo-myelin final 20 hours
[8] = BV2 cells, 10 uM compound, 48 hours treatment, pHrodo-myelin final 20 hours

| SMILES | 4. Phagocytosis (% control) [1, 5] [% control] | 4. Phagocytosis (% control) [2, 6] [% control] | 1. Cell count (% control) ([3]; HMC3, compound 10 uM) | 2. Nuclear Area (% Control) ([3]; HMC3, compound 10 uM) | 3. Nuclear DNA Intensity (% control) ([3]; HMC3, compound 10 uM) | 1. Cell count (% control) ([4]; BV2, compound 10 uM) | 2. Nuclear Area (% Control) ([4]; BV2, compound 10 uM) | 3. Nuclear DNA Intensity (% control) ([4]; BV2, compound 10 uM) | 4. Phagocytosis (% control) [1, 7] [% control] | 4. Phagocytosis (% control) [2, 8] [% control] | 1. Cell count (% control) ([3]; HMC3 cells, 10 uM compound) | 2. Nuclear Area (% Control) ([3]; HMC3 cells, 10 uM compound) | 3. Nuclear DNA Intensity (% control) ([3]; HMC3 cells, 10 uM compound) | 1. Cell count (% control) ([4]; BV2 cells, 10 uM compound) | 2. Nuclear Area (% Control) ([4]; BV2 cells, 10 uM compound) | 3. Nuclear DNA Intensity (% control) ([4]; BV2 cells, 10 uM compound) |
| --- | --- | --- | --- | --- | --- | --- | --- | --- | --- | --- | --- | --- | --- | --- | --- | --- |
| Cc1cc(OCc2nnc(SC3CCCC3)n2-c2cccnc2)ccc1-c1ccc(S(C)(=O)=O)cc1 [UNC10302838A] | 33.5 | 0.0 | 58.3 | 51.1 | 240.9 | 15.0 | 98.1 | 45.6 |  |  |  |  |  |  |  |  |
| O=C(NC1CCNCC1)c1[nH]ncc1NC(=O)c1c(Cl)cccc1Cl [UNC10302839A] | 183.7 | 18.2 | 70.4 | 131.0 | 97.4 | 4.8 | 121.7 | 82.5 |  |  |  |  |  |  |  |  |
| O=S(=O)(NC1CCNCC1)c1cc(S(=O)(=O)c2ccccc2)ccc1C(F)(F)F [UNC10302840A] | 90.9 | 189.7 | 108.8 | 103.9 | 95.8 | 104.4 | 105.6 | 95.4 |  |  |  |  |  |  |  |  |
| COc1cccc2c(NCc3ccccc3)nc(-n3c(N)nc4ccccc43)nc12 [UNC10302841A] |  |  |  |  |  |  |  |  | 0.0406 | 0.00115 | 55.4 | 78.1 | 92.0 | 33.6 | 129.2 | 62.4 |
| O=C(CCl)c1ccccc1Nc1cccc(C(F)(F)F)c1 [UNC10302842A] | 56.6 | 183.6 | 87.6 | 81.7 | 149.6 | 92.3 | 108.5 | 96.7 |  |  |  |  |  |  |  |  |
| CCn1cc(C(=O)O)c(=O)c2c(N)c(F)c(NC3CCCCC3)cc21 [UNC10302843A] | 67.4 | 121.2 | 0.0 | 0.0 | 0.0 | 99.6 | 97.0 | 118.4 |  |  |  |  |  |  |  |  |
| Cc1cc(C)nc(NC(=S)N2CCN(Cc3ccc(C(F)(F)F)cc3)CC2)c1 [UNC10302844A] |  |  |  |  |  |  |  |  | 108.4 | 180.4 | 133.1 | 97.8 | 105.3 | 129.8 | 107.6 | 103.9 |
| CCc1cnn2c(NCc3ccc[n+]([O-])c3)cc(N3CCCC[C@H]3CCO)nc12 [UNC10302845A] | 167.0 | 3.5 | 51.6 | 136.2 | 97.0 | 16.3 | 103.8 | 20.9 |  |  |  |  |  |  |  |  |
| Cc1cc(NC(=O)Nc2ccc(F)c(F)c2)n(-c2ccccc2)n1 [UNC10302846A] |  |  |  |  |  |  |  |  | 71.8 | 158.9 | 127.2 | 103.4 | 94.5 | 131.4 | 104.7 | 107.1 |
| COc1ccc(CCN2CCN(CCCc3ccccc3)CC2)cc1OC.Cl.Cl [UNC10302848A] |  |  |  |  |  |  |  |  | 82.7 | 120.8 | 84.9 | 99.2 | 95.9 | 91.1 | 105.5 | 98.2 |
| c1ccc(-c2nn3c(c2-c2ccnc4cc(OCCN5CCOCC5)ccc24)CCC3)nc1 [UNC10302849A] |  |  |  |  |  |  |  |  | 64.5 | 134.3 | 117.4 | 115.4 | 85.1 | 150.2 | 109.6 | 98.8 |
| O=C(NNc1nc2cc(F)ccc2n2cccc12)c1cnccn1 [UNC10302850A] |  |  |  |  |  |  |  |  | 103.0 | 362.4 | 86.1 | 94.6 | 106.5 | 29.4 | 129.5 | 94.0 |
| CCOC(=O)N1c2ccc(C(F)(F)F)cc2[C@@H](N(Cc2cc(C(F)(F)F)cc(C(F)(F)F)c2)C(=O)OC)C[C@H]1CC [UNC10302851A] |  |  |  |  |  |  |  |  | 85.4 | 135.7 | 125.3 | 99.8 | 94.2 | 124.9 | 104.2 | 100.1 |
| CO[C@H]1C[C@@H]2CC[C@@H](C)[C@@](O)(O2)C(=O)C(=O)N2CCCC[C@H]2C(=O)O[C@H]([C@H](C)C[C@@H]2CC[C@@H](O)[C@H](OC)C2)CC(=O)[C@H](C)/C=C(\C)[C@@H](O)[C@@H](OC)C(=O)[C@H](C)C[C@H](C)/C=C/C=C/C=C/1C [UNC10302852A] |  |  |  |  |  |  |  |  | 64.8 | 309.6 | 103.0 | 85.8 | 119.9 | 54.7 | 106.2 | 98.8 |
| N#Cc1ccc(COC[C@H]2O[C@@H](n3c(NCc4ccc(Cl)c(Cl)c4)nc4c(N)ncnc43)[C@H](O)[C@@H]2O)cc1 [UNC10302853A] |  |  |  |  |  |  |  |  | 88.3 | 176.9 | 92.6 | 103.1 | 98.3 | 54.5 | 107.2 | 111.0 |
